Data from patent US20220323554A1, “POLYSACCHARIDE-PEPTIDE COMPLEX FOR LOWERING BLOOD SUGAR, BLOOD LIPID AND GLYCOSYLATED HEMOGLOBIN LEVELS, AND PREPARATION METHOD” (CHINA YUNHONG HOLDINGS CO., LTD., priority 2019, published 2022).
Structures can show the parent of a compound that is named as a salt.

Assays:
[1] = system: diabetic rat model; test: Evaluation tests for lowering glycated hemoglobin (HbA1c) and blood lipid in diabetic rats (high-lipid emulsion + streptozotocin); assay type: in vivo, Sprague-Dawley (SD) rats; conditions: positive control group, metformin hydrochloride solution, intragastric once per day for 8 weeks
Experimental: Evaluation tests for lowering glycated hemoglobin (HbA1c) were described below.
Healthy male Sprague-Dawley (SD) rats with a body weight of 185-225 g were selected and fed adaptively for one week. After adaptive feeding, the SD rats were randomly divided into six groups each for 20 rats. One of the six groups was selected as a blank control group, and fed with ordinary feed. The rest five groups were subjected to intragastric administration with high-lipid emulsion for 10 mL/kg per day for 1 month. After the last feeding, rats were fasted for 12 h expect for water. The rats fed with high-lipid emulsion were subjected to disposable intraperitoneal injection with streptozotocin STZ solution for 25 mg/kg to establish a diabetic rat model. After streptozotocin injection for 72 h, the rats were fasted for 12 h expect for water and was taken blood samples from the tail to detect fasting blood sugar. The rat with a fasting blood glucose>10.0 mmol/L was considered as a successful model. The blank control group was intraperitoneally injected with citric acid-sodium citrate buffer solution.
The rats that were successfully modeled were randomly divided into model group, positive control group, low-dose group, medium-dose group and high-dose group according to blood sugar and body weight, with 20 rats in each group. […]

[2] = system: diabetic animal model; test: Evaluation tests for lowering blood sugar (urine sugar, fasting blood sugar) in streptozotocin rats; assay type: in vivo; conditions: positive control group, metformin hydrochloride solution, intragastric once per day for 15 days
Experimental: Evaluation tests for lowering blood sugar were described below.
100 of healthy male rats were selected, numbered and fed adaptively in normal environment for 2 weeks, and free to eat and drink.
After adaptive feeding, the rats were randomly divided into 5 groups with 20 rats in each group. Only one group was selected as the blank control group, the rest groups were subjected to disposable intraperitoneal injection with 5% streptozotocin STZ solution for 200 mg/kg. If there were coma among those rats within 2 h, glucose sugar solution was fed until awake. Two days later, the fasting blood sugar was detected. The rat with a blood sugar of more than 10 was selected as a diabetic animal model.
The rats that were successfully modeled were randomly divided into model group, positive control group, low-dose group, medium-dose group and high-dose group according to blood sugar and body weight, with 20 rats in each group. The polysaccharide-peptide composites prepared in Examples 1-3 were diluted with water into intragastric solutions, which were fed to the low-dose group for 1.0 g/kg, the medium-dose group for 2.0 g/kg and the high-dose group for 3.0 g/kg, respectively. […]
During the experiment, rats of each group were […] every day for 15 consecutive days. […] At the end of the experiment, the final blood sugar content was recorded.

[3] = system: high-lipid model rats; test: Evaluation tests for lowering blood lipid (TC, TG) in rats given high lipid diet; assay type: in vivo; conditions: positive control group, simvastatin solution 50 mg/kg bw d, intragastric
Excerpt: Evaluation tests for lowering blood lipid were described below. 60 of healthy male rats were selected, numbered and fed adaptively in normal environment for 2 weeks, and free to eat and drink. After the adaptive feeding, the rats were randomly divided into 6 groups with 10 rats in each group, consisting of a blank control group, a high-lipid model group, a positive treatment group, a high-dose group, a medium-dose group and a low-dose group. Except the blank control group, the other groups were given high lipid diet. The polysaccharide-peptide composites prepared in this application and simvastatin were respectively diluted. The positive control group was given simvastatin solution by intragastric administration for 50 mg/kg bw d, and the high, medium and low-dose groups were given polysaccharide-peptide solutions for 100 mg/kg bw d, 50 mg/kg bw d and 25 mg/kg bw d, respectively. Other groups were intragastric with corresponding volume of distilled water. The treatment period lasted for 4 weeks.

| Compound | Content of blood lipid ([1]; model group 3.29 ± 0.58) [mmol/L] | Content of HbA1c ([1]; model group 50.78 ± 3.76) [ng/mL] | Content of urine sugar ([2]; model group 1.74 ± 0.56) [mmol/L] | Content of fasting blood sugar ([2]; model group 14.86 ± 2.38) [mmol/L] | Content of TG ([3]; model group 0.57 ± 0.18) [mmol/L] | Content of TC ([3]; model group 3.41 ± 0.58) [mmol/L] |
| --- | --- | --- | --- | --- | --- | --- |
| CN(C)C(=N)N=C(N)N [metformin hydrochloride] | 2.52 ± 0.24 | 35.14 ± 1.25 | 1.44 ± 0.23 | 8.55 ± 1.37 |  |  |
| CCC(C)(C)C(=O)O[C@H]1C[C@@H](C)C=C2C=C[C@H](C)[C@H](CC[C@@H]3C[C@@H](O)CC(=O)O3)[C@H]21 [simvastatin] |  |  |  |  | 0.32 ± 0.14 | 2.59 ± 0.24 |
